Inconclusive results and toxic doses are left out. Rule as the data show it: active = T/C of 150% or more; inactive = T/C below 125%.
Tested on: L1210 leukemia ip in BDF1 mice, survival T/C
Assay: NCI In Vivo Anticancer Drug Screen. Data for tumor model L1210 Leukemia (intraperitoneal) in B6D2F1 (BDF1) mice
Settings: endpoint: mean survival time, higher = longer survival
Outline: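 Antitumor effect is assessed in tumor-bearing animals. Survival in the compound arm is compared with a vehicle-dosed control arm and expressed as their quotient.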

[1] = dose: 100.0 mg/kg/injection, schedule: Q01DX001 (ip), vehicle: saline

Measured: T/C

c1ccc(CN2CCN(CC3CC3)CC2)cc1
inactive: dose: 12.5 mg/kg/injection, schedule: Q04DX003 (ip), vehicle: Klucel (hydroxypropylcellulose) (HPC) 103 % of control | dose: 25.0 mg/kg/injection, schedule: Q04DX003 (ip), vehicle: Klucel (hydroxypropylcellulose) (HPC) 98 % of control | dose: 50.0 mg/kg/injection, schedule: Q04DX003 (ip), vehicle: Klucel (hydroxypropylcellulose) (HPC) 110 % of control

O=C(/C=C(\c1ccccc1)c1ccc([N+](=O)[O-])cc1)Nc1ccc(S(=O)(=O)F)cc1
inactive: dose: 100.0 mg/kg/injection, schedule: Q04DX003 (ip), vehicle: saline with Tween-80 96 % of control | dose: 200.0 mg/kg/injection, schedule: Q04DX003 (ip), vehicle: saline with Tween-80 91 % of control | dose: 400.0 mg/kg/injection, schedule: Q04DX003 (ip), vehicle: saline with Tween-80 96 % of control

O=c1cc(Nc2cccc(-c3ccccc3)c2)[nH]c(=O)[nH]1
inactive: dose: 87.5 mg/kg/injection, schedule: Q01DX001 (ip), vehicle: gum acacia 90 % of control | dose: 175.0 mg/kg/injection, schedule: Q01DX001 (ip), vehicle: gum acacia 102 % of control | dose: 350.0 mg/kg/injection, schedule: Q01DX001 (ip), vehicle: gum acacia 95 % of control

CC1CCCCN1C(CC(=O)c1ccccc1)C(=O)c1ccccc1 (stereo unspecified)
inactive: dose: 50.0 mg/kg/injection, schedule: Q01DX001 (ip), vehicle: saline 97 % of control | [1] 95 % of control | dose: 200.0 mg/kg/injection, schedule: Q01DX001 (ip), vehicle: saline 101 % of control | dose: 400.0 mg/kg/injection, schedule: Q01DX001 (ip), vehicle: saline 101 % of control

C[C@]12C=CC(=O)C=C1CC[C@@H]1[C@@H]2[C@@H](O)C[C@@]2(C)[C@H]1CC[C@]2(O)C(=O)COC(=O)C1CCCC1
inactive: dose: 89.0 mg/kg/injection, schedule: Q01DX Z (sc), vehicle: distilled water + alcohol 111 % of control | dose: 89.0 mg/kg/injection, schedule: Q01DX Z (sc), vehicle: steriod suspending solution 104 % of control | dose: 130.0 mg/kg/injection, schedule: Q01DX Z (sc), vehicle: steriod suspending solution 98 % of control | dose: 133.0 mg/kg/injection, schedule: Q01DX Z (sc), vehicle: distilled water + alcohol 96 % of control | dose: 200.0 mg/kg/injection, schedule: Q01DX Z (sc), vehicle: distilled water + alcohol 96 % of control | dose: 200.0 mg/kg/injection, schedule: Q01DX Z (sc), vehicle: steriod suspending solution 112 % of control | dose: 300.0 mg/kg/injection, schedule: Q01DX Z (sc), vehicle: distilled water + alcohol 108 % of control | dose: 300.0 mg/kg/injection, schedule: Q01DX Z (sc), vehicle: steriod suspending solution 93 % of control

CC[CH2][Pb]([CH2]CC)([CH2]CC)[O]C(=O)CCl
inactive: dose: 3.0 mg/kg/injection, schedule: Q01DX009 (ip), vehicle: Klucel (hydroxypropylcellulose) (HPC) 106 % of control | dose: 6.0 mg/kg/injection, schedule: Q01DX009 (ip), vehicle: Klucel (hydroxypropylcellulose) (HPC) 101 % of control | dose: 12.5 mg/kg/injection, schedule: Q01DX009 (ip), vehicle: Klucel (hydroxypropylcellulose) (HPC) 96 % of control

O=C(Nc1cc2ccccc2nc1-c1ccccc1)c1ccccc1
inactive: [1] 92 % of control

COc1ccc(/C=C(\C#N)c2ccc([N+](=O)[O-])cc2)cc1OC
inactive: dose: 100.0 mg/kg/injection, schedule: Q04DX002 (ip), vehicle: saline with Tween-80 90 % of control | dose: 200.0 mg/kg/injection, schedule: Q04DX002 (ip), vehicle: saline with Tween-80 90 % of control | dose: 400.0 mg/kg/injection, schedule: Q04DX002 (ip), vehicle: saline with Tween-80 90 % of control

O=C(OC1CCCCCCC1OC(=O)c1ccc([N+](=O)[O-])cc1)c1ccc([N+](=O)[O-])cc1 (stereo unspecified)
inactive: dose: 75.0 mg/kg/injection, schedule: Q01DX001 (ip), vehicle: carboxymethylcellulose (CMC) 93 % of control | dose: 150.0 mg/kg/injection, schedule: Q01DX001 (ip), vehicle: carboxymethylcellulose (CMC) 91 % of control | dose: 300.0 mg/kg/injection, schedule: Q01DX001 (ip), vehicle: carboxymethylcellulose (CMC) 91 % of control

O=C1CC2(CCCCC2)CO1
inactive: dose: 0.78 mg/kg/injection, schedule: Q04DX003 (ip), vehicle: saline 100 % of control | dose: 1.56 mg/kg/injection, schedule: Q04DX003 (ip), vehicle: saline 100 % of control | dose: 3.12 mg/kg/injection, schedule: Q04DX003 (ip), vehicle: saline 103 % of control | dose: 6.25 mg/kg/injection, schedule: Q04DX003 (ip), vehicle: saline 103 % of control | dose: 12.5 mg/kg/injection, schedule: Q04DX003 (ip), vehicle: saline 92 % of control

Source: PubChem BioAssay AID248 (DTP/NCI, 2004)
